Experimental data published in the NIST ThermoML archive (doi:10.1021/je400551d).
Where “and” joins values, the source holds several entries; their conditions need not be identical. Equal values may be shown once. ± gives the expanded uncertainty stated by the source.

Settings: Liquid, Manometric method

For `OCCO` [1,2-ethanediol], the “vapor or sublimation pressure” value (336.45 K) was 0.2527 ± 0.078 kPa, the “vapor or sublimation pressure” value (345 K) was 0.4838 ± 0.079 kPa and the “vapor or sublimation pressure” value (355.15 K) was 0.9002 ± 0.08 kPa. The “vapor or sublimation pressure” value (369.25 K) was 1.69 ± 0.21 kPa, the “vapor or sublimation pressure” value (374.45 K) was 2.13 ± 0.21 kPa and the “vapor or sublimation pressure” value (378.95 K) was 2.66 ± 0.22 kPa. For the same compound, the “vapor or sublimation pressure” value (384.45 K) was 3.57 ± 0.22 kPa, the “vapor or sublimation pressure” value (388.1 K) was 4.4 ± 0.22 kPa and the “vapor or sublimation pressure” value (391.45 K) was 5.33 ± 0.22 kPa. The “vapor or sublimation pressure” value (394.56 K) was 6.01 ± 0.23 kPa, the “vapor or sublimation pressure” value (397.25 K) was 7.14 ± 0.23 kPa and the “vapor or sublimation pressure” value (404.05 K) was 9.2 ± 0.23 kPa. For the same compound, the “vapor or sublimation pressure” value (408.25 K) was 11.34 ± 0.24 kPa.
In the case of `COC(N)=O` [carbamic acid, methyl ester], the “vapor or sublimation pressure” value (341.45 K) is reported as 1.31 ± 0.21 kPa, the “vapor or sublimation pressure” value (350.9 K) is reported as 1.91 ± 0.21 kPa and the “vapor or sublimation pressure” value (356.06 K) is reported as 2.5 ± 0.22 kPa. For the same compound, the “vapor or sublimation pressure” value (360.75 K) was 3.55 ± 0.22 kPa, the “vapor or sublimation pressure” value (364.43 K) was 4.19 ± 0.22 kPa and the “vapor or sublimation pressure” value (367 K) was 4.48 ± 0.22 kPa. For the same compound, the “vapor or sublimation pressure” value (371.7 K) was 5.42 ± 0.22 kPa, the “vapor or sublimation pressure” value (373.85 K) was 6.23 ± 0.23 kPa and the “vapor or sublimation pressure” value (377.23 K) was 7.14 ± 0.23 kPa. The “vapor or sublimation pressure” value (384.9 K) was 9.83 ± 0.23 kPa, the “vapor or sublimation pressure” value (387.17 K) was 10.96 ± 0.24 kPa and the “vapor or sublimation pressure” value (390.5 K) was 12.39 ± 0.24 kPa. The “vapor or sublimation pressure” value (393.75 K) was 13.99 ± 0.24 kPa.
In the case of `CCCCCCCCCC` [decane], the “vapor or sublimation pressure” value (299.25 K) is reported as 0.1732 ± 0.078 kPa, the “vapor or sublimation pressure” value (306.95 K) is reported as 0.3091 ± 0.078 kPa and the “vapor or sublimation pressure” value (309.15 K) is reported as 0.4116 ± 0.079 kPa. The “vapor or sublimation pressure” value (316.26 K) was 0.6545 ± 0.079 kPa, the “vapor or sublimation pressure” value (326.1 K) was 1.04 ± 0.21 kPa and the “vapor or sublimation pressure” value (340.05 K) was 1.95 ± 0.21 kPa. The “vapor or sublimation pressure” value (347.9 K) was 2.97 ± 0.22 kPa, the “vapor or sublimation pressure” value (353.32 K) was 3.8 ± 0.22 kPa and the “vapor or sublimation pressure” value (358.67 K) was 4.82 ± 0.22 kPa. The “vapor or sublimation pressure” value (362.85 K) was 5.92 ± 0.23 kPa, the “vapor or sublimation pressure” value (365.13 K) was 6.96 ± 0.23 kPa and the “vapor or sublimation pressure” value (370.4 K) was 8.23 ± 0.23 kPa. For the same compound, the “vapor or sublimation pressure” value (377.13 K) was 10.48 ± 0.23 kPa, the “vapor or sublimation pressure” value (379.93 K) was 12 ± 0.24 kPa and the “vapor or sublimation pressure” value (382.83 K) was 13.25 ± 0.24 kPa.
For `COC(=O)Nc1ccccc1` [methyl N-phenylcarbamate], the “vapor or sublimation pressure” value (372.5 K) was 0.2093 ± 0.078 kPa, the “vapor or sublimation pressure” value (374.46 K) was 0.2248 ± 0.078 kPa and the “vapor or sublimation pressure” value (376.9 K) was 0.254 ± 0.078 kPa. For the same compound, the “vapor or sublimation pressure” value (379.05 K) was 0.308 ± 0.078 kPa, the “vapor or sublimation pressure” value (380.65 K) was 0.3343 ± 0.078 kPa and the “vapor or sublimation pressure” value (383.31 K) was 0.3891 ± 0.079 kPa. The “vapor or sublimation pressure” value (385.85 K) was 0.4487 ± 0.079 kPa, the “vapor or sublimation pressure” value (387.85 K) was 0.4996 ± 0.079 kPa and the “vapor or sublimation pressure” value (390.35 K) was 0.5609 ± 0.079 kPa. For the same compound, the “vapor or sublimation pressure” value (391.76 K) was 0.5914 ± 0.079 kPa, the “vapor or sublimation pressure” value (394.05 K) was 0.651 ± 0.079 kPa and the “vapor or sublimation pressure” value (395.8 K) was 0.719 ± 0.08 kPa. The “vapor or sublimation pressure” value (397.05 K) was 0.7885 ± 0.08 kPa and 0.7897 ± 0.08 kPa, the “vapor or sublimation pressure” value (399.63 K) was 0.9364 ± 0.08 kPa and the “vapor or sublimation pressure” value (399.83 K) was 0.9418 ± 0.08 kPa. The “vapor or sublimation pressure” value (402.15 K) was 1.06 ± 0.21 kPa, the “vapor or sublimation pressure” value (409.85 K) was 1.29 ± 0.21 kPa and the “vapor or sublimation pressure” value (412.9 K) was 1.54 ± 0.21 kPa. The “vapor or sublimation pressure” value (415.9 K) was 1.97 ± 0.21 kPa and the “vapor or sublimation pressure” value (418.45 K) was 2.13 ± 0.21 kPa.
In the case of `O` [water], the “vapor or sublimation pressure” value (280.2 K) is reported as 1.29 ± 0.21 kPa, the “vapor or sublimation pressure” value (282.23 K) is reported as 1.34 ± 0.21 kPa and the “vapor or sublimation pressure” value (287.9 K) is reported as 1.82 ± 0.21 kPa. For the same compound, the “vapor or sublimation pressure” value (292.36 K) was 2.13 ± 0.22 kPa, the “vapor or sublimation pressure” value (296.13 K) was 2.78 ± 0.22 kPa and the “vapor or sublimation pressure” value (300.7 K) was 3.47 ± 0.22 kPa. The “vapor or sublimation pressure” value (304.8 K) was 4.54 ± 0.22 kPa, the “vapor or sublimation pressure” value (306.67 K) was 4.82 ± 0.22 kPa and the “vapor or sublimation pressure” value (309.65 K) was 5.9 ± 0.23 kPa. The “vapor or sublimation pressure” value (312.07 K) was 6.75 ± 0.23 kPa, the “vapor or sublimation pressure” value (314.95 K) was 7.78 ± 0.23 kPa and the “vapor or sublimation pressure” value (316.65 K) was 8.45 ± 0.25 kPa. For the same compound, the “vapor or sublimation pressure” value (317.9 K) was 9.45 ± 0.25 kPa, the “vapor or sublimation pressure” value (320.04 K) was 10.62 ± 0.24 kPa and the “vapor or sublimation pressure” value (322.75 K) was 11.78 ± 0.24 kPa.
